Data on eleven compounds can be found in PubChem BioAssay (NCI).

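Briefly, cells in 96-well plates were exposed to five compound concentrations for 48 h, and endpoints were estimated by linear interpolation. The concentration for 50% growth inhibition is given as GI50. TGI marks complete inhibition of growth.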 Some results are limits rather than exact numbers.

Common to all, as to test: NCI anticancer screen, dose series, 48 h
For experiment [1], the system named is LOX IMVI melanoma.
Experiment [2] deals with SK-MEL-5 melanoma.
Experiment [3] relates to MDA-MB-231 breast.
For experiment [4], the system named is UO-31 renal.
The subject of experiment [5] is SW-620 colon.
The test system of experiment [6] is SF-268 CNS.
The subject of experiment [7] is IGROV1 ovarian.
Experiment [8] deals with HCC-2998 colon.
Experiment [9] deals with A498 renal.
The subject of experiment [10] is RXF 393 renal.
Experiment [11] relates to M14 melanoma.
Experiment [12] deals with CCRF-CEM leukemia.

For `Cc1ccc(NC(=S)Nc2c(C)n(C)n(-c3ccccc3)c2=O)cc1`, the TGI in experiment [1], in experiment [2], in experiment [3], in [4], in experiment [5] and in experiment [6] was greater than 100 µM throughout. Moreover, the TGI in experiment [7], in experiment [8], in experiment [9], in [10], in experiment [11] and in experiment [12] was greater than 100 µM throughout.
For the compound `CCCn1c(=O)c2ccccc2[n+]2c(-c3ccc([N+](=O)[O-])cc3)csc12`, the TGI in experiment [1] was 51.3 µM; in [2], 45.7 µM; in experiment [3], greater than 100 µM; in experiment [4], 97.3 µM; in experiment [5], greater than 100 µM; in [6], greater than 100 µM. Besides, the TGI in experiment [7] is greater than 100 µM; in experiment [8] it was greater than 100 µM; in experiment [9], 74.4 µM; in experiment [10], 55.3 µM; in [11], greater than 100 µM; in [12], 82.5 µM.
In the case of `CCOC(=O)C1=C(C)C(C(=O)OC)/C(=C/c2cccc3cccnc23)C1=O` (stereo unspecified), the TGI in experiment [1], in experiment [2], in experiment [3], in experiment [4], in experiment [5] and in [6] was greater than 10 µM in each case. In addition, the TGI in experiment [7], in experiment [8], in experiment [9], in experiment [10], in experiment [11] and in [12] was greater than 10 µM in each case.
For the compound `N#Cc1c(N2CCCC2)ncn(Cc2ccccc2)c1=S`, the TGI in [1], in experiment [2], in [3], in experiment [4], in experiment [5] and in [6] was greater than 100 µM throughout. Moreover, the TGI in experiment [7], in experiment [8], in experiment [9], in experiment [10], in [11] and in experiment [12] was greater than 100 µM throughout.
`COc1cc(/C=C2\N=C(c3ccccc3)N(/N=C3\C(=O)Nc4ccccc43)C2=O)cc(OC)c1OC`: the TGI in [1], in experiment [2], in [3], in experiment [4], in experiment [5] and in experiment [6] was greater than 100 µM in each case. Also, the TGI in experiment [7], in experiment [8], in experiment [9], in experiment [10], in experiment [11] and in experiment [12] was greater than 100 µM in each case.
As to `COc1c(OC)c(O)c2c(=O)c(OC)c(-c3ccc4c(c3)OCO4)oc2c1O`, the TGI in [1], in experiment [2], in experiment [3], in experiment [4], in [5] and in [6] was greater than 100 µM throughout. Also, the TGI in experiment [7], in experiment [8], in experiment [9], in experiment [10], in experiment [11] and in experiment [12] was greater than 100 µM throughout.
With `Cc1cccc2nc3cccc(C(=O)NCCC[N+](C)(CCCNC(=O)c4cccc5nc6cccc(C)c6nc45)Cc4c([N+](=O)[O-])ncn4C)c3nc12`, the TGI is 18.8 µM in [1]; 366 µM in experiment [2]; greater than 1100 µM in experiment [3]; greater than 1100 µM in experiment [4]; greater than 1100 µM in experiment [5]; greater than 1100 µM in experiment [6]. Also, the TGI in [7] was greater than 1100 µM; in experiment [8], 790 µM; in experiment [9] it was greater than 1100 µM; in experiment [10] it was greater than 1100 µM; in [12] it was greater than 1100 µM. Besides, the GI50 was 12.1 µM in experiment [2]; greater than 1100 µM in experiment [3]; 48.7 µM in experiment [4]; 49.3 µM in experiment [5]; 19.2 µM in experiment [6]; greater than 1100 µM in [9]. Moreover, the GI50 in experiment [10] was 339 µM.
Take `CCOC(=O)c1c2c(n(-c3ccc(OC)cc3)c1C)C(=O)C(=O)c1ccccc1-2`: the TGI in [1] was found to be 2.49 µM; in experiment [2], 2.59 µM; in experiment [3], 4.37 µM; in experiment [5], 8.09 µM; in [6], 3.76 µM; in [7], 12.7 µM. Moreover, the TGI was 3.38 µM in experiment [8]; 3.97 µM in experiment [9]; 4.05 µM in [10]; 3.17 µM in [11]; greater than 100 µM in experiment [12]. The GI50 in [9] is 1.76 µM.
`COCN1CCN=c2c1c1c3c(c4ccccc4n23)CCC1`: the TGI in [1], in [2], in [3], in experiment [4], in [5] and in experiment [6] was greater than 100 µM each time. Also, the TGI in experiment [7], in [8], in experiment [9], in experiment [10], in experiment [11] and in [12] was greater than 100 µM in each case.
With `O=C(Nc1c(Cl)cc([N+](=O)[O-])cc1Cl)C(=O)C1C(=O)NC(=S)NC1=O`, the TGI in experiment [1], in experiment [2], in [3], in [4], in [5] and in experiment [6] was greater than 100 µM each time. Also, the TGI in experiment [7], in experiment [8], in experiment [9], in experiment [10], in experiment [11] and in experiment [12] was greater than 100 µM each time.
Regarding `OCC(O)C1OC2CC1Nc1ccccc1N2` (stereo unspecified), the TGI in experiment [1], in [2], in experiment [3], in [4], in experiment [5] and in [6] was greater than 100 µM throughout. Also, the TGI in experiment [7], in experiment [8], in [9] and in experiment [12] was greater than 100 µM in each case.
